{
  "source": "paper PMC10676384",
  "about": "“Core-dependent post-translational modifications guide the biosynthesis of a new class of hypermodified peptides” (Nature Communications, 2023)",
  "system": "CcaF",
  "assay": "In vitro CcaF leader peptide removal assay",
  "assay_type": "biochemical, Chryseobacterium carnipullorum DSM25581",
  "settings": "substrate:CcaF 100:1 to 20:1; 50 mM Tris-HCl pH 8.0, RT overnight; MALDI-TOF MS",
  "from_the_text": "To identify the position of each modification and characterize the final product, the leader peptide must be excised. To this end, we focused on the putative peptidase CcaF. The sequence of CcaF is annotated as a S8 (subtilisin type) serine protease and contains a classical Asp-His-Ser catalytic triad. Recombinant CcaF was heterologously expressed in E. coli BL21(DE3) and purified as a polyHis-tagged protein (Supplementary Fig. 7). […] Given the structural divergence amongst these modified peptides, CcaF appears to be a protease with a broad substrate scope.\nThe leader peptide was removed by protease CcaF. The reactions were performed in a 1.5 mL eppendorf tube with optimized ratio (100:1 to 20:1) of different substrates and CcaF in 50 mM Tris-HCl (pH =8.0) buffer at RT overnight. The substrates are different modified full length precursor peptide and synthetic 10-mer peptide. The reaction was monitored by MALDI-TOF MS, if the digestion was not completed, another 50:1 ratio CcaF protease was added and stay at RT for another 8 hours.",
  "data": [
    {"sequence": "DELSATAAAA [10-mer peptide]", "values": [
      {"measurement": "cleavage by protease CcaF", "value": "digested at the expected position"}
    ]}
  ]
}
